Laboratory results from patent publication EP2163246A1, “Taurine or taurine-like substances for the prevention of the irreversible visual effects of vigabatrin” (INSERM (Institut National de la Santé et de la Recherche …, priority 2008, dated 2010).
“Also recorded” adds a separate entry of the source. Read-outs that look alike come from different tables or passages of the source. Each block holds one compound with its values, some of them ahead of it.

What was measured:
retina [1] = tested on: retina; set-up: species or system Wistar rats Rj Wi IOPS Han; details: rat, in vivo
Procedure: (§1) ERG were recorded as described previously after the last VGB injection (Duboc et al., 2004). Anesthesia was induced by an intramuscular injection of a solution containing ketamine (100 mg/kg) and xylazine (10 mg/kg). After 10 min adaptation to a […] light intensity, ten recordings were obtained with flash intensity of 10 cdsm^-2 at an interstimulus interval 30s and subsequently averaged. These photopic ERG measurements were performed after 59 days in rats and 29 days in mice.
(§2) Sabril IS Investigator and Peer Review Groups. Epilepsia Vol. 37, 638-642 (1996)).
(§3) Animals were light-adapted for 10 minutes with a background light of 25 cdm^-2. Light flashes were then applied on this background light; the light intensity of the flash was 10 cdsm^-2 for the mouse experiments and for the rats maintained in darkness (Figs. 2, 6) or 25 cdsm^-2 for other experiments (Figs 3, 5). Ten recordings were averaged with an interstimulus interval of 30s.

cone photoreceptors [2] = test: Retinal histology quantification in VGB-treated rats (cone arrestin, GFAP); assay type: in vivo, Wistar rats Rj Wi IOPS Han
Procedure: (§4) Sabril IS Investigator and Peer Review Groups. Epilepsia Vol. 37, 638-642 (1996)). […] The primary antibody added to the solution was incubated for two hours at room temperature. Polyclonal antibodies were directed against VGluT1 (1:2000, Chemicon), rabbit GFAP (1/400, Dako, USA) and mouse cone arrestin (Zhu, X., et al. Mouse cone arrestin expression pattern: light induced translocation in cone photoreceptors. Molecular vision Vol. 8, 462-471 (2002)) (Luminaire junior, LUMIj, 1:20,000). Monoclonal antibodies were directed against Goα (1:2000, Chemicon). […] Inner/outer segments of cone photoreceptors were stained with a peanut lectin (PNA, Sigma) during 12 hours of incubation at 4°C. The dye, diamidiphenyl-indole (DAPI), was added during the final incubation period. […] Following DAPI nuclear staining, the lengths of disorganised retinal areas were measured; GFAP immunostaining was used for detection and quantificationof retinal areas with reactive gliosis. The cone photoreceptor density was calculated following cone arrestin immunostaining (rats) or PNA labelling (mice) to visualise the inner/outer segments of cone photoreceptors; areas with disorganised retinal layering were excluded. Areas with sprouting bipolar cells were quantified following immunolabelling of these cells with the antibody directed against the protein Goα.

cone photoreceptors [3] = test: Retinal histology quantification in VGB-treated mice (DAPI, PNA, Goα); assay type: in vivo, BALB/c mice
Procedure: as §4

[4] = rats, VGB 65 days, versus control
Procedure: VGB was dissolved in 0.9 % NaCl at a concentration of 125 mg/ml. It was administered at 40 mg (125 mg/ml, 0.32 ml) by daily intraperitoneal injection for 45 or 65 days and at 3 mg (60 mg/ml, 0.05 ml) to mice for 29 days (daily dose of about 200 mg/kg in rats and 150 mg/kg in mice). Vitamin B6 (active form) was administered at a dose of 1 mM/kg (solution 154,46 mg/ml) whereas taurine was provided in the drinking water at 0,1 mol/l.
After 65 days of injection, rats were anesthetized for blood sampling. Anesthesia was induced as described above. Under anesthesia an indwelling catheter was placed in the carotid artery. This method allowed obtaining a single, large, good quality blood sample. A 1 mL blood sampling was taken for each rat in a heparinized blood sampler, immediately centrifuged and frozen at -80°C. Automated amino acid ion chromatography (Pasteur Cerba, France) was used for the quantitative determination of total and free amino acids in the samples.
VGB dissolved in 0.9% NaCl was administered at 40mg (125 mg/ml, 0.32ml) to rats by daily intraperitoneal injection for 45 or 65 days and at 3mg (60mg/ml, 0.05ml) to mice for 29 days. […] Taurine supplementation was given in drinking water at a concentration of 0.1M.

retinal ganglion cells = details: young rats, VGB 0.6 mg/day i.p. 25 days, versus control
Procedure: Animal treatments: Breeds of Wistar rats Rj Wi IOPS Han were purchased from Janvier (Le Genest-St-lsle, France). VGB dissolved in 0.9% NaCl was administered at 0.6mg/jour (6 mg/ml, 0.1ml) to rats by daily intraperitoneal injection for 25 days from age 4 days.
Histology: Animals were anesthetized by intraperitoneal injection (0.8 to 1.2 ml/kg) of a solution containing ketamine (40 mg/ml) and xylazine (4 mg/ml Rompum). They were then perfused first with heaparin 1000Ul/ml in saline solution (0.9% NaCl), then with fixative containing 4% Paraformaldehyde (Merck chemicals ref. : 100496 ) and 0.2% glutaraldehyde (fluka 25%). Eye cups were isolated and fixed overnight at 4°C in 4% (wt/vol) paraformaldehyde in phosphate buffered saline (PBS; 0.01 M, pH 7.4). The tissue was cryoprotected in successive solutions of PBS containing 10%, 20% and 30% sucrose at 4°C, oriented along the dorso-ventral axis and embedded in OCT (Labonord, Villeneuve d'Ascq, France). […]
For quantification, vertical sections along the dorso-ventral axis were selected at the optic nerve. Brn3A -positive retinal ganglion cells were quantified along the complete retinal section. […]

[5] = rats (Sills GJ. et al. 2001); cited from earlier work
GABA = details: rats (Neal MJ. et al. 1989; Cubells JF. et al. 1987); cited from earlier work
retina [6] = test: Photopic electroretinogram (ERG) in VGB-treated mice; assay type: in vivo, BALB/c mice
Procedure: as §1, §2, §3

[7] = VGB plus taurine versus VGB alone, p<0.001

GFAP immunostaining (cone photoreceptors [2]; VGB alone): increase in GFAP immunostaining | sprouting of bipolar cell dendrites (cone photoreceptors [3]; VGB alone): observed in VGB-treated mice | density of cone outer and inner segments (cone photoreceptors [3]; VGB alone versus control, p<0.001 (Fig. 4C)): lower densities
SMILES: C=CC(N)CCC(=O)O (stereo not drawn) [VGB, 4-amino-5-hexenoic acid]
photopic ERG amplitude (retina [1]): induced a decrease in the photopic electroretinogram (ERG) measurement | decrease of taurine level in vigabatrin-treated animals ([4]; p<0.05): 67% | difference (reduction) for methionine ([4]; significant): 22% | reduction of glutamic acid in the blood sample ([4]; statistically significant): 56% | decrease of the number of retinal ganglion cells (retinal ganglion cells): 56% | concentration in the retina relative to the brain [5]: five-fold higher | GABA concentrations in the brain relative to control rats (GABA): two-fold higher | GABA concentrations in the retina relative to control rats (GABA): five-fold higher

SMILES: NCCS(=O)(=O)O [taurine, 2-aminoethanesulfonic acid]
photopic ERG amplitude (retina [6]; mouse, in vivo): the difference was no longer statistically significant between controls and vigabatrin plus taurine supplementation | GFAP immunostaining (cone photoreceptors [2]; [7]): less extensive in animals receiving taurine supplementation than in animals without supplementation | cone segment density (cone photoreceptors [2]; VGB plus taurine versus VGB alone, p<0.05, remained lower than control): greater in the VGB-treated group with taurine supplementation than in animals without supplementation | sprouting of bipolar cell dendrites (cone photoreceptors [3]; VGB plus taurine): completely suppressed | cone density (cone photoreceptors [3]; [7]): prevented this decrease in cone density | disorganisation of the outer nuclear layer (areas of retinal disorganisation) (cone photoreceptors [3]; VGB plus taurine versus VGB alone, p<0.001 (Fig. 4B)): smaller areas of retinal disorganisation than mice without supplementation

SMILES: Cc1ncc(COP(=O)(O)O)c(C=O)c1O [vitamin B6, pyridoxal-5'-phosphate]
photopic ERG amplitude (retina [6]; mice, VGB plus vitamin B6 (active form) 1 mM/kg (Fig. 1B)): smaller decrease in photopic ERG than with vigabatrin alone; also recorded: reduced the decrease in photopic ERG amplitude
